Test system: passive sensitised guinea pig lung parenchyma strips
Assay: Inhibition of the antigen-caused constriction of passive sensitised guinea pig lung parenchyma strips in vitro (organ bath)
Assay type: cell-based
Details: Cavia porcellus; concentration 10 μM; ovalbumin-caused constriction, 20 min pre-incubation at 37° C.; % reduction of constriction amplitude vs untreated control constrictions; read-out: superfusion inhibition (%)
Experimental: Inhibition of the antigen-caused constriction of passive sensitised guinea pig lung parenchyma strips in vitro (organ bath)
For the in vitro investigation of the compounds according to the invention, the inhibition of the antigen-caused constriction of passive sensitised guinea pig lung parenchyma strips was measured, as described in the following:
Pribright white guinea pigs were stunned by a neck blow and exsanguinated. The lungs were rinsed substantially free of blood in situ with Krebs buffer, pH 7.4.
Subsequently, the lungs were removed, cut up into strips (about 20×4×4 mm) and the strips passively sensitised for one hour at room temperature with a 1:50 dilution of a homologous anti-ovalbumin antiserum and then washed 1× with Krebs buffer.
The antiserum was previously produced according to DAVIES in guinea pigs of the same strain by repeated injection of ovalbumin (2×crystallised) with addition of complete Freund's adjuvant.
Until its use, the antiserum was stored at -18° C. undiluted.
Subsequently, the lung strips were suspended individually on an isometric measurement sensor with an initial tension of 1.2 g.
Thereafter, the baths were filled with Krebs buffer and continously gassed at 37° C. with O2 (95%) and CO2 (5%). The constrictions of the lung strips were recorded on a recorder via an amplifier.
After 30 minutes acclimatisation phase, histamine control spasms were produced for the recognition of the reaction ability of the organ pieces, washed, subsequently the test substance pre-incubated at 37° C. for 20 minutes and thereafter the ovalbumin-caused constriction initiated.
The inhibition actions of the compounds according to the invention were expressed as percentage reduction of the constriction amplitude of the "samples with test substance" in relationship to the "untreated control constrictions".

| SMILES | inhibition at 10 µM |
| --- | --- |
| O=C(O)c1ccccc1SCCCCOc1ccc(C=Cc2ccncc2)cc1 [Example 12, 2-{4-{4-[2-(4-Pyridinyl)-ethenyl]-phenoxy}-butylthio}-benzoic acid] | 42% |
| O=C(O)c1ccccc1SCCCOc1ccc(CCc2ccncc2)cc1 [Example 14, 2-{3-{4-[2-(4-Pyridinyl)-ethyl]-phenoxy}-propylthio}-benzoic acid] | 56% |
| C(=Cc1ccc(OCCCCc2nnn[nH]2)cc1)c1ccncc1 [Example 15, 5-{4-{4-[2-(4-Pyridinyl)-ethenyl]-phenoxy}butyl}-1H-tetrazole] | 56% |
| O=C(CCCOc1ccc(CCc2ccncc2)cc1)Nc1nnn[nH]1 [Example 18b] | 32% |
| O=C(CCCCOc1ccccc1C=Cc1ccccn1)Nc1nnn[nH]1 [Example 18c, 5-{2-[2-(2-pyridinyl)-ethenyl]-phenoxy}-valeric acid N-(1H-tetrazol-5-yl)-amide] | 33% |
| O=C(CCCCOc1ccccc1CCc1ccccn1)Nc1nnn[nH]1 [Example 18h, 5-{2-[2-(2-pyridinyl)-ethyl]-phenoxy}-valeric acid N-(1H-tetrazol-5-yl)-amide] | 53% |

From patent publication US5399575A, “Pyridine compounds which have useful pharmaceutical activity” (Boehringer Mannheim GmbH, priority 1990, dated 1995)
